From US11827690B2, “ApoC-II mimetic peptides” (THE UNITED STATES OF AMERICA, as represented by the …, priority 2017, dated 2023)
“Also recorded” adds a separate entry of the source.

What was measured:
[1] = tested on: VLDL isolated from human plasma; assay: ApoC-III displacement study in VLDL isolated from human plasma; format: binding
Protocol: VLDL or chylomicrons isolated from human plasma were incubated with an apoC-II mimetic peptide for 1 hour at 37° C. and washed 3 times with PBS using spin filter with 100 kDa cutoff membrane. […] ApoC-I, apoC-II, apoC-III, and apoE bands were identified by their corresponding size.

[2] = biological target: T1, LPL inhibited by apoC-III (Bos taurus, UniProt P11151); assay: LPL activation assay with high TG human plasma as substrate and recombinant apoC-III as an inhibitor; format: biochemical; conditions: for effect on inhibition of LPL by apoC-III: high TG human plasma substrate
T1 sequence (P11151 29-478): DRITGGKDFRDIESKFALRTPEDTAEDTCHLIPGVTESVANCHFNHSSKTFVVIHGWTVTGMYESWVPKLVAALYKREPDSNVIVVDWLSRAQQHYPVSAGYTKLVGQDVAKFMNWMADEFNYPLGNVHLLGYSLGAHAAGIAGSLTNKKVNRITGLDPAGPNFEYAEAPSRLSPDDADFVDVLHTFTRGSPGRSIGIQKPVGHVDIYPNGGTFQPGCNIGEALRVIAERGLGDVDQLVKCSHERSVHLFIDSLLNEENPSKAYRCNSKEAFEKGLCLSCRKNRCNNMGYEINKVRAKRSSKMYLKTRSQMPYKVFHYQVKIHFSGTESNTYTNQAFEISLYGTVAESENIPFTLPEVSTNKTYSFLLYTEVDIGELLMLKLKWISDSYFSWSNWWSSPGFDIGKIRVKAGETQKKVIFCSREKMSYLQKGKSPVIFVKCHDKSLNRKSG
Protocol: LPL activity assay: 10 μL of Intralipid, human plasma sample, or mouse plasma sample was added in each well using repeater pipette. 10 μL (or 15 μL in the wells with no LPL control) of PBS and 10 μL of 1% BSA was added in each well using repeater pipette. 10 μL of peptides were added to corresponding wells in vertical triplicates (lowest concentration is on a left, highest is on the right). The plate was spun down at 1000 RPM for 10 seconds to mix and to remove the solutions from the wall of each well. The plate was put on ice and 5 μL of LPL was added using repeater pipette. The plate was spun down again at 1000 RPM for 10 seconds. The plate was covered and put back on ice for an incubation of 30 min. The plate was then moved to 37° C. and incubated for 1 hour.
Free fatty acids (NEFA) assay: 45 μL of 5 nmoL standard and 0 nmoL control (0.2% BSA) were added to corresponding wells. 225 μL of reagent A was added in each well using the reagent tray and 12-channel pipette. The plate was incubated for 10 min before 75 μL of reagent B was added to each well using the reagent tray and 12-channel pipette. The plate was not covered due to the high volume. The absorbance at 550 nm and 660 nm was measured.
LPL assay was performed using Intralipid, high TG human plasma (1:50 dilution), or apoC-III transgenic mouse plasma (1:50 dilution). When Intralipid was used as a substrate, 25 or 50 μM recombinant ApoC-III was added as an inhibitor. When the high TG human plasma was used as a substrate, 25 or 50 μM recombinant ApoC-III was added as an inhibitor with or without pre-incubation at 37° C. for 1 hour. An apoC-II mimetic peptide was added at various concentrations.

[3] = tested on: wild-type mice; assay: serum TG of wild-type mice after Intralipid injection with or without LPL inhibitor Triton WR1339; format: in vivo
Protocol: In some experiments, each animal received 20% Intralipid (FDA approved, Fresenius Kabi, Uppsala, Sweden) in a single dose either by oral gavage (using special sterile single-use non-toxic animal feeding needles) in a dose 10-20 μL/gram body weight (B.W.) (Tuzcu et al. Drug Chem Toxicol 37: 261-267, 2014; Kusminski et al. Nature Medicine 18: 1539-1549, 2012), or by intraperitoneal injection in a single bolus of 0.1-1.0 mL (Mahadero et al. American J Surgery 164: 45-50, 1992), or by intragastric administration of a dietetic commercially-available liquid oil (food grade vegetable, corn, soy or olive oil) in a single dose 10-20 μL/gram body weight. These oils were a source of TG—when absorbed TG tends to be broken down within 3 h (peak in 30 min) (Kritchevsky Nutritional Biochemistry 6:172-178, 1995). Blood samples (20-30 μL) were obtained from the retro-orbital plexus at time points: −1 h, 0 h, 1 h, 3 h, 6 h and 24 h for measurements of lipids. Mice were returned to metabolic cages after the 6 h time point where the food was put back. Once the study was completed (after 24 hours from the fat administration), mice were euthanized and organs collected.
The ability of apolipoprotein mimetic peptides to normalize hypertriglyceridemia in mice treated with an LPL inhibitor, Tyloxapol, in presence of high TG provided by 20% Intralipid, was assessed.
Mice were fasted overnight (approximately 12 hours) before the study and 6 hours during the study, the next day. The apo mimetic peptides were synthetically produced and free of biological contamination (not available as FDA approved compounds/treatment). Peptides were produced and used in sterile conditions and filtered by 0.2 nm filter before injections in a single dose 1-5 μmol/kg B.W. either S.C. or I.P. or I.V. (in a sterile, pharmaceutical grade PBS solution at a volume ≤200 μL). Next, 10% Tyloxapol (Triton WR-1339, T-0307, Sigma-Aldrich) was injected I.V. in a single dose of 5 μL/gram B.W., as described earlier (Zhang Y. L. et al., J Biol Chem. 279: 19362-19374, 2004; Abe C. et al., J. Nutr. 137: 345-350, 2007). […] Finally, each animal received 20% Intralipid (FDA approved, Fresenius Kabi, Uppsala, Sweden) in a single dose either by oral gavage (using special sterile single-use non-toxic animal feeding needles)—in a dose 10-20 μL/gram B.W. (Tuzcu K. et al., Drug Chem Toxicol., 37: 261-267, 2014, Kusminski C. et al., Nature Medicine. 18: 1539-1549, 2012), or by intraperitoneal injection—in a single bolus of 0.1-1.0 mL (Mahadero G. et al., American J Surgery. 164: 45-50, 1992). Blood samples (20-30 μL) were obtained from the retro-orbital plexus at time points: −1 h, 0 h, 1 h, 3 h, 6 h and 24 h for measurements of lipids. Mice were returned to metabolic cages after the 6 h time point where the food was put back. Once the study was completed (after 24 hours from the Intralipid administration), mice were euthanized and organs collected.

Sequence	affinity for the VLDL compared with the apolipoproteins [1]	selectivity of apolipoprotein displacement ([1]; MALDI-TOF mass spectrometry, FIG. 29A)	binding of peptide to VLDL versus concentration ([1]; MALDI-TOF, FIG. 29B)	influence of pre-incubation of apoC-III with human plasma on peptide effect [2]	concentration at which it overcame the inhibitory effect of apoC-III ([2]; 50 μM apoC-III, FIG. 32)	concentration at which it started to affect lipolysis ([2]; 50 μM apoC-III, FIG. 32)	effect on inhibition of LPL by apoC-III [2]	effect on inhibition of LPL by apoC-III ([2]; listed as ApoC-II-a)	block of rise in serum TG after IP injection of Intralipid ([3]; co-injected with the LPL inhibitor Triton WR1339)	apoC-II displacement in VLDL ([1]; FIG. 49)	apoC-III displacement in VLDL ([1]; SDS PAGE)	effect on inhibition of LPL by Triton ([3]; FIG. 35B)	serum TG increase after Intralipid injection ([3]; intraperitoneal peptide, presence or absence of Triton, FIG. 35B)	serum TG increase after Intralipid injection ([3]; repeat-dose study, peptide IP 1 hour after Intralipid, 0.25 and 1 μmole/kg, FIG. 46B)
DWLKAFYDKVAEKLKEAFPAMSTYTGIFTDQVLSVLKGEE (listed as Homo sapiens) [apoC-II-a, excluded from the claimed peptides]	higher affinity for the VLDL than the apolipoproteins	selectively replaced apoC-III and apoC-I, but not apoC-II; also recorded: selectively displaces apoC-III and apoC-I but not apoC-II	almost proportional to its concentration; also recorded: approximately proportional to its concentration	did not change the effect	about 0.2 μM	0.01 µM	further facilitated lipolysis	overcomes the inhibition by apoC-III	about 50%	–	–	–	–	–
DYLKEVFEKLRDLYEKFTPAVSTYTGIFTDQVLSVLKGEE [Delta6PV]	higher affinity for the VLDL than the apolipoproteins	–	–	–	–	–	overcomes the inhibition of apoC-III	–	–	also displaced	displaced apoC-III in a dose-dependent matter	reversed the inhibition of LPL by Triton	the TG increase was significantly reduced	the TG increase was significantly reduced
